Common to all, as to experiment: biochemical
Holding throughout (assay type): biochemical

The target in one test is T1, hCA I (Homo sapiens, UniProt P00915).
T1 construct: from tissue; host or cells: fresh human erythrocytes
The protocol:
(§1) CA activity was determined using the previously described spectrophotometric procedure of Verpoorte et al. as explained previously.[21] ^, [57] ^, [58] […] The quantity of protein was measured according to the previously described by Bradford method.[61–64] and bovine serum albumin was used as the standard.[65] ^, [66] After the purification method of the CA isoforms, samples were subjected to SDS polyacrylamide gel electrophoresis (SDS-PAGE).[67–69] […] The IC50 values were calculated from activity (%) against compounds inhibition.[72–74] Three various concentrations were used to calculate Ki values.[75–77]

For a further test, the target named is T2, hCA II (Homo sapiens, UniProt P00918).
T2 construct: from tissue; host or cells: fresh human erythrocytes
The protocol: as §1

Another test deals with AChE (Homo sapiens, UniProt P22303). The settings on record: for AChE/BChE (proportion of AChE to BChE, selectivity): ratio of Ki AChE to Ki BChE. As to the method: (§2) Acetylthiocholine iodide (AChI) and butyrylthiocholine iodide (BChI) were used as substrates for the reaction. 5,5′-Dithio-bis(2-nitro-benzoic)acid (DTNB) was used for the measurement of the AChE/BChE activities. Briefly, 1.0 ml of Tris/HCl buffer (1.0 M, pH 8.0), and 10 µL of sample solution were dissolved in deionized water at different concentrations and 50 µL AChE/BChE solution were mixed and incubated for 10 min at 25 °C. Next 50 µL of DTNB (0.5 mM) was added. The reaction was then initiated by the addition of 50 µL of AChI or BChI.
Chain of AChE (P22303 32-614): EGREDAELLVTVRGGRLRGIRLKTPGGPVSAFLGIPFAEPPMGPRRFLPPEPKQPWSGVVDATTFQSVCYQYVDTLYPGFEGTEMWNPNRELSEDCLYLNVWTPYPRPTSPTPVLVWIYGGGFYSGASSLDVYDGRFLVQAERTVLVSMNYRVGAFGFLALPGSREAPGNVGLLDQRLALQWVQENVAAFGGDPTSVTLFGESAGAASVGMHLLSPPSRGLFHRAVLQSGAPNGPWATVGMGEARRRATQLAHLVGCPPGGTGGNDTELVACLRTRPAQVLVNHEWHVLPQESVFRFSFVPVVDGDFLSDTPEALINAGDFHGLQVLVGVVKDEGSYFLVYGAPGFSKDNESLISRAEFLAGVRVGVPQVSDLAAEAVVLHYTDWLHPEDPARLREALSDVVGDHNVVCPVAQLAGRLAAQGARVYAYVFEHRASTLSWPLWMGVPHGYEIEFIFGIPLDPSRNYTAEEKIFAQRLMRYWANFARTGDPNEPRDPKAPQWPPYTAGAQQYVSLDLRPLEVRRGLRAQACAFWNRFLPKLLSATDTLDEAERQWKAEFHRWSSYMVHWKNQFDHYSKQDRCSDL

A further test has as its target BChE (Homo sapiens, UniProt P06276). As to the method:
as §2

[1] abbreviates: purified from human erythrocytes, PNA substrate, 22 °C, read-out: IC50 hCA I.
[2] abbreviates: three concentrations used, read-out: Ki hCA I.
The mark [3] stands for this setting: purified from human erythrocytes, PNA substrate, 22 °C, read-out: IC50 hCA II.
Where [4] appears, read: three concentrations used, read-out: Ki hCA II.
Where [5] appears, read: Ellman, Tris/HCl pH 8.0, 25 °C, read-out: IC50 AChE.
Setting [6] is: Ellman, Tris/HCl pH 8.0, 25 °C, read-out: IC50 BChE.

These results are taken from PMC6445195, “Synthesis and biological evaluation of aminomethyl and alkoxymethyl derivatives as carbonic anhydrase, acetylcholinesterase and butyrylcholinesterase inhibitors” (Journal of Enzyme Inhibition and Medicinal Chemistry, 2017).

Several values for one entry are separate records, joined by “and”; a condition that tells them apart may be missing. Identical values can stand only once. Like-named read-outs stand apart in the source and are kept apart here.

For orientation: IC50 means the concentration that gives 50% inhibition. A word on the Ki: it is the dissociation constant of the complex between target and ligand, obtained from inhibition or displacement.

Chain of BChE (P06276 29-602): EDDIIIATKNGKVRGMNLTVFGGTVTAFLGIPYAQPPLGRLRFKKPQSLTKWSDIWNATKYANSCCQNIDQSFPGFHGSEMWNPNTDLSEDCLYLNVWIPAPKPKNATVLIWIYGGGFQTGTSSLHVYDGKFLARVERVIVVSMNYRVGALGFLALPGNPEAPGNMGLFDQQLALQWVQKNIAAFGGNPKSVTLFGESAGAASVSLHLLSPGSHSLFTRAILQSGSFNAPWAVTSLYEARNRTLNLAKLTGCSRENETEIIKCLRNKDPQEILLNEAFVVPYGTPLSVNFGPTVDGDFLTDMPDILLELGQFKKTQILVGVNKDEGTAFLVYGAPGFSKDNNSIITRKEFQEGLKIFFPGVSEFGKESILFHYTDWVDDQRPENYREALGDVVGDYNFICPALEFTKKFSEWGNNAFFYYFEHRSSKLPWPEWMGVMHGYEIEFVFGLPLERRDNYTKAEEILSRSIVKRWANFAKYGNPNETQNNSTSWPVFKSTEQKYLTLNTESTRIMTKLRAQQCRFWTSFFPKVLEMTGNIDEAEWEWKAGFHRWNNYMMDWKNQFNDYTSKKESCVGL
T1 sequence (P00915 whole entry): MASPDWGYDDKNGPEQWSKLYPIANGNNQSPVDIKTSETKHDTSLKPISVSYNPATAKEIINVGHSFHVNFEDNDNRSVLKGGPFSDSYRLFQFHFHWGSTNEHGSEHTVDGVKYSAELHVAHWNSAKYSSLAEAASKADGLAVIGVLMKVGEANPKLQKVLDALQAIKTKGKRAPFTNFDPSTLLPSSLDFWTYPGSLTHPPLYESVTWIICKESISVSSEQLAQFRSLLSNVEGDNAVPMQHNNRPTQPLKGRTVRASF

`S=c1sc2ccccc2n1CN1CCOCC1` [Compound 1, N-oxazinomethylbenzothiazoline-2-thione]: the IC50 at hCA I (setting [1]) was 79 nM; at hCA II (setting [3]), 104 nM; on AChE (setting [5]), 51 nM; on BChE (setting [6]), 88 nM. Moreover, the Ki was 108 ± 35 nM at hCA I (setting [2]), 81 ± 19 nM at hCA II (setting [4]), 26 ± 5 nM on AChE (read-out: Ki AChE) and 32 ± 7 nM at BChE (read-out: Ki BChE). Besides, the “AChE/BChE (proportion of AChE to BChE, selectivity)” value at AChE is reported as 0.812.

For `S=c1sc2ccccc2n1CN1CCCCC1` [Compound 4, N-Piperidinomethylbenzothiazoline-2-thione], the IC50 at hCA I (setting [1]) stood at 86 nM; at hCA II (setting [3]), 99 nM; at AChE (setting [5]), 36 nM; at BChE it was 82 nM. The Ki worked out at 86 ± 40 nM on hCA I (setting [2]), 105 ± 25 nM at hCA II (setting [4]), 18 ± 2 nM on AChE (read-out: Ki AChE) and 41 ± 13 nM at BChE. For the same compound, the “AChE/BChE (proportion of AChE to BChE, selectivity)” value at AChE was 0.439.

For `CCN(CC)Cn1c(=S)sc2ccccc21` [Compound 5, N-diethylaminomethylbenzothiazoline-2-thione], the half-inhibitory concentration (IC50) was determined as 82 nM at hCA I, 98 nM against hCA II, 52 nM on AChE and 83 nM against BChE. For the same compound, the Ki at hCA I was 70 ± 15 nM; at hCA II, 100 ± 24 nM; at AChE, 34 ± 9 nM; at BChE, 51 ± 9 nM. On AChE, the “AChE/BChE (proportion of AChE to BChE, selectivity)” value is 0.666.

On to `CCN(CC)Cn1c(=S)oc2ccccc21` [Compound 6, N-diethylaminomethylbenzoxazoline-2-thione], for which the IC50 at hCA I (setting [1]) came to 102 nM; at hCA II (setting [3]), 118 nM; on AChE (setting [5]), 44 nM; against BChE it was 80 nM. For the same compound, the inhibition constant Ki came out at 123 ± 48 nM at hCA I (setting [2]), 115 ± 28 nM on hCA II (setting [4]), 45 ± 11 nM on AChE (read-out: Ki AChE) and 30 ± 3 nM at BChE. On AChE, the “AChE/BChE (proportion of AChE to BChE, selectivity)” value was found to be 1.500.

For the compound `S=c1oc2ccccc2n1CN1CCOCC1` [Compound 8, N-morfolinomethylbenzoxazoline-2-thion], the IC50 at hCA I (setting [1]) came out at 94 nM; at hCA II (setting [3]) it was 119 nM; on AChE (setting [5]), 38 nM; at BChE (setting [6]), 48 nM. Further, the inhibition constant (Ki) on hCA I (setting [2]) was found to be 58 ± 15 nM; at hCA II (setting [4]) it was 121 ± 40 nM; on AChE (read-out: Ki AChE) it was 32 ± 6 nM; on BChE (read-out: Ki BChE), 23 ± 3 nM. At AChE, the “AChE/BChE (proportion of AChE to BChE, selectivity)” value came out at 1.391.

On to `S=c1oc2ccccc2n1CN1CCOC1` [Compound 9, N-oxazolidinomethylbenzoxazoline-2-thione], for which the IC50 at hCA I (setting [1]) came to 103 nM; at hCA II (setting [3]), 121 nM; at AChE (setting [5]), 62 nM; at BChE (setting [6]), 84 nM. The inhibitory constant (Ki) at hCA I (setting [2]) was determined as 76 ± 20 nM; at hCA II (setting [4]) it was 135 ± 33 nM; at AChE (read-out: Ki AChE), 78 ± 36 nM; at BChE (read-out: Ki BChE), 80 ± 9 nM. The “AChE/BChE (proportion of AChE to BChE, selectivity)” value at AChE is 0.975.

In the case of `CC(C)OCn1c(=S)oc2ccccc21` [Compound 13, N-isopropoxymethylbenzoxazoline-2-thione], the IC50 on hCA I (setting [1]) was found to be 105 nM; at hCA II (setting [3]), 122 nM; at AChE (setting [5]), 63 nM; against BChE, 83 nM. Also, the inhibitory constant (Ki) at hCA I (setting [2]) was 90 ± 23 nM; at hCA II (setting [4]), 94 ± 37 nM; at AChE (read-out: Ki AChE), 34 ± 5 nM; on BChE, 35 ± 4 nM. Further, on AChE, the “AChE/BChE (proportion of AChE to BChE, selectivity)” value came out at 0.971.

`COCCOCn1c(=S)oc2ccccc21` [Compound 14, N-(methoxyethoxy)methyl-benzoxazoline-2-thione]: the IC50 was found to be 112 nM on hCA I (setting [1]), 128 nM at hCA II (setting [3]), 38 nM at AChE (setting [5]) and 68 nM against BChE. Also, the Ki was 119 ± 53 nM on hCA I (setting [2]), 142 ± 56 nM at hCA II (setting [4]), 23 ± 4 nM at AChE (read-out: Ki AChE) and 60 ± 13 nM on BChE. In addition, the “fold of inhibitory activity against AChE/BChE than that of TAC” value at AChE (AChE/BChE selectivity relative to TAC) stood at 2.22 fold. At AChE, the “AChE/BChE (proportion of AChE to BChE, selectivity)” value was 0.388 and 0.383.

For the compound `COCCOCNc1nccs1` [Compound 15, 2-(methoxyethoxy) methylaminothiazole], the IC50 at hCA I (setting [1]) is 128 nM; at hCA II (setting [3]), 158 nM; on AChE (setting [5]), 43 nM; at BChE (setting [6]), 109 nM. The Ki on hCA I (setting [2]) came out at 118 ± 27 nM; on hCA II (setting [4]), 193 ± 79 nM; at AChE (read-out: Ki AChE), 25 ± 3 nM; on BChE (read-out: Ki BChE), 45 ± 14 nM. Further, on AChE, the “AChE/BChE (proportion of AChE to BChE, selectivity)” value was 0.555.

Consider `CC(C)OCNc1nccs1` [Compound 16, 2-isopropoxymethylaminothiazole], for which the IC50 at hCA I (setting [1]) is 156 nM; at hCA II (setting [3]), 167 nM; at AChE (setting [5]), 76 nM; at BChE it was 127 nM. Moreover, the Ki was 132 ± 30 nM on hCA I (setting [2]), 162 ± 29 nM on hCA II (setting [4]), 42 ± 4 nM on AChE (read-out: Ki AChE) and 55 ± 12 nM at BChE. The “AChE/BChE (proportion of AChE to BChE, selectivity)” value at AChE is given as 0.763.

Regarding `COCNc1nccs1` [Compound 17, 2-(methoxy)methylaminothiazole], the concentration for half-maximal inhibition (IC50) at hCA I (setting [1]) came out at 142 nM; on hCA II (setting [3]), 187 nM; at AChE (setting [5]) it was 80 nM; at BChE, 144 nM. Also, the Ki at hCA I (setting [2]) is 157 ± 38 nM; on hCA II (setting [4]), 215 ± 40 nM; on AChE (read-out: Ki AChE), 54 ± 10 nM; at BChE, 42 ± 20 nM. Besides, on AChE, the “AChE/BChE (proportion of AChE to BChE, selectivity)” value turned out to be 1.285.
